Where no end group is shown, it is not given here.
What was measured:
BALB/c mice = test: ELISA antibody titers in sera of immunized BALB/c mice; assay type: in vivo; conditions: mouse; Figure 1C
Method: The peptide vaccine MVF-PD-1(92-110) was dissolved in sterile water and mixed with either ISA 720 or ISA 51 (1:1) ratio. We utilized the well-established murine colon carcinoma cell line CT26 tumor model in syngeneic BALB/c mice to evaluate the effects of vaccination previously described ([23]). Briefly, 6–8-week-old female BALB/c mice were immunized with the peptide vaccine, and 2 weeks after the third immunization, the mice were challenged with 1×10^5 CT26 colon cancer cells by subcutaneous injection (SC). The CT26 cancer cell line was maintained in the DMEM medium with 10% FBS 5% CO2 at 37 °C. […] Tumor growth was monitored daily, especially 7 days after the tumor challenge. […]
(§1) Enzyme-linked immunosorbent assay (ELISA) was performed per our lab standard procedure. […] After washing, the antibody was detected using 50 μl of 0.15% H2O2 in 24 mM of citric acid and 5 mM of the sodium phosphate buffer (pH5.2) with 0.5 mg/ml 2, […] (3-ethylbenzthiazole- 6-sulfonic acid, ABTS; Sigma, St. Louis, MO, USA) as the chromophore. […] Absorbance was read at 415 nm using an ELISA microplate reader (SPECTRAmax PLUS384; Molecular Devices, San Jose, CA, USA). The highest dilution at the cutoff absorbance 0.2 were determined as the antibody titer. […]

cynomolgus monkeys = test: ELISA antibody titers, monkey study No.00213515; assay type: in vivo, Macaca fascicularis; conditions: monkey 1st set, 0.5, 2, 5 mg/dose, 2-week interval, ISA 720
Method: The non-human primate studies were carried out by the Charles River Laboratories (Ashland, OH USA). All the cynomolgus monkeys (Macaca fascicularis of Chinese origin) were obtained from Charles River Laboratories (Houston, TX, USA). In brief, the animals were approximately 2–4 years old and at the body weight between 2.2 and 3.1 kg at the initial dosing. The animals were kept at the temperature between 19°C and 24°C, humidity 30%–70%, and with 12 h light and 12 h dark light cycle. The Good manufacturing practice (GMP)-manufactured vaccine was used in the non-human primate study. […] Similar to mouse and dog dosing preparation, after the emulsion was prepared, a drop test was performed on each time of dosing to confirm that the emulsion had been prepared properly. […] All the animals’ body weights were monitored weekly after receiving. […]
as §1

[1] = target: T1, recombinant human PD-1 (rhPD-1) (Homo sapiens, UniProt Q15116); test: ELISA of monkey serum with rhPD-1 as capture agent; assay type: binding; conditions: monkey sera
T1 construct: His tag; purchased ACROBiosystems PD1-H5221
T1 sequence (Q15116 25-288): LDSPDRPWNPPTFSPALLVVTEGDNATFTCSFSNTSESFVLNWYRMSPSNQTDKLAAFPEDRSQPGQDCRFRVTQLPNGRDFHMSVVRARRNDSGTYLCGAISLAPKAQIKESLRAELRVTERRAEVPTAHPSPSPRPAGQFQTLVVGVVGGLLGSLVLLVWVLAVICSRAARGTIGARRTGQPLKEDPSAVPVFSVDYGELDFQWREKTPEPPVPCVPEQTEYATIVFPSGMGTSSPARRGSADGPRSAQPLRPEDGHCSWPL
Method: For the detection of PD-1 human recombinant protein activity, the human recombinant protein PD-1 (PD1-H5221, HIS tag; ACROBiosystems, Newark, DE, USA) 100 μl at the concentration of […] were coated on the 96 wells plate as an antigen. The following procedures were performed as the description of ELISA.
In a separate experiment, these monkey serum samples were tested using recombinant human PD-1 (rhPD-1) as the capture agent. […] See Table 2 for summary of mouse, dog, and non-human primate experiments.

With “KLLSLIKGVIVHRLEGVEGPSLGAISLAPKAQIKESLRAEL [MVF-PD-1(92-110)]” the “immunogenicity (summary)” value (BALB/c mice) was “High immunogenicity ( Figure 1C );”, the “immunogenicity (summary)” value (cynomolgus monkeys) was “high immunogenicity” and the “recognition of rhPD-1 by anti-APi2568 antibody in monkey serum (summary)” value ([1]; days 29, 43, 57) was “high binding ability against rh-PD-1”. The “recognition of rhPD-1 by anti-APi2568 antibody in monkey serum (summary)” value ([1]; days 29, 43, 57, listed as APi2568) was “some of the anti-APi2568 antibody formed in monkeys recognized rhPD-1”.

Source: paper PMC9137037 (Frontiers in Oncology, 2022)
